Experimental data as given in the NIST ThermoML archive (doi:10.1016/j.fluid.2010.05.013).
± gives the expanded uncertainty stated by the source.

Details: visual observation

Normal melting temperature (Crystal) [°C]	SMILES	Normal melting temperature (Metastable crystal) [°C]
-20.83 ± 0.17	CCC(=O)O [propanoic acid]	–
–	CCn1cc[n+](C)c1.O=S(=O)([N-]S(=O)(=O)C(F)(F)F)C(F)(F)F	-17.00 ± 2
17 ± 0.17	CC(O)C(=O)O (stereo not drawn) [2-hydroxypropanoic acid]	–
